# Measured values published in US12174198B2, “Methods of characterizing condensate-associated characteristics of compounds and uses thereof” (Dewpoint Therapeutics, Inc., priority 2019, dated 2024).
# Experiments:
# Format in all cases: physicochemical
# [1] = molecular target: T1, FUS-SNAP condensates (Homo sapiens, UniProt P35637); test: Fluorescence imaging of dye partitioning in FUS-SNAP condensates (I-in, I-out); settings: for Ratio of intensity inside:outside FUS-SNAP Condensates Day 1 / Ratio of intensity inside:outside FUS-SNAP Condensates Day 2 / Ratio of intensity inside:outside FUS-SNAP Condensates Average: I-in:I-out; for Ratio of intensity inside:outside FUS-SNAP Condensates Day 1 / Ratio of intensity inside:outside FUS-SNAP Condensates Day 2 / Ratio of intensity inside:outside FUS-SNAP Condensates Average / Intensity Inside with Dye Average / Intensity Inside with Dye 1 / Intensity Inside with Dye 2 / Intensity Inside with Dye 3 / Intensity Outside with Dye Average / Intensity Outside with Dye 1 / Intensity Outside with Dye 2 / Intensity Outside with Dye 3: 10 μM dye; for Ratio of intensity inside:outside FUS-SNAP Condensates Average: average of two days; for Intensity Inside with Dye Average / Intensity Inside with Dye 1 / Intensity Inside with Dye 2 / Intensity Inside with Dye 3 / Intensity Inside Dye-No Dye: inside FUS-SNAP condensate; for Intensity Inside with Dye Average / Intensity Inside with Dye 1 / Intensity Inside with Dye 2 / Intensity Inside with Dye 3 / Intensity Outside with Dye Average / Intensity Outside with Dye 1 / Intensity Outside with Dye 2 / Intensity Outside with Dye 3: 5 μM protein; for Intensity Inside with Dye Average / Intensity Outside with Dye Average: average of three images; for Intensity Inside with Dye Average / Intensity Inside with Dye 1 / Intensity Inside with Dye 2 / Intensity Inside with Dye 3 / Intensity Inside Dye-No Dye / Intensity Outside with Dye Average / Intensity Outside with Dye 1 / Intensity Outside with Dye 2 / Intensity Outside with Dye 3 / Intensity Outside (Dye-No Dye): one day of experiments; for Intensity Inside with Dye 1 / Intensity Outside with Dye 1: image 1; for Intensity Inside with Dye 2 / Intensity Outside with Dye 2: image 2; for Intensity Inside with Dye 3 / Intensity Outside with Dye 3: image 3; for Intensity Inside Dye-No Dye / Intensity Outside (Dye-No Dye): background corrected; for Intensity Outside with Dye Average / Intensity Outside with Dye 1 / Intensity Outside with Dye 2 / Intensity Outside with Dye 3 / Intensity Outside (Dye-No Dye): outside FUS-SNAP condensate
# T1 sequence (P35637 1-526): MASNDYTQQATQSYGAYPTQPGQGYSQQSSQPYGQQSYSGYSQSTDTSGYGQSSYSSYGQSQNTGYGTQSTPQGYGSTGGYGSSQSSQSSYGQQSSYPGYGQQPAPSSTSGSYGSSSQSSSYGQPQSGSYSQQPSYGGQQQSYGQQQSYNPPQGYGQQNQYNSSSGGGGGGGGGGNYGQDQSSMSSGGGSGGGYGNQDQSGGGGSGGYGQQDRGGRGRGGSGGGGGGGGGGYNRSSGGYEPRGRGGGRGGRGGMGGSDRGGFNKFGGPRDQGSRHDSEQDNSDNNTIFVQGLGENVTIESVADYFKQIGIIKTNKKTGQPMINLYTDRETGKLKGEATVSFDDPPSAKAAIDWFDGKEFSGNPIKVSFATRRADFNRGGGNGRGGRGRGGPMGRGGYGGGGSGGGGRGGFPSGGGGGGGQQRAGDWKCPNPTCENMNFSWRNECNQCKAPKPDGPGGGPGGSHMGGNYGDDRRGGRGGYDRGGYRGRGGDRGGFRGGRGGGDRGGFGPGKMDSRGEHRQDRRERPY
# Experimental: (§1) All dye-stocks were stored as 1 mM solutions in 100% DMSO. The dyes were dissolved in dilution buffer (DB: 14.7 mM Tris, pH 7.25, 1 mM DTT) to yield 11.765 μM dye in 1.1765 DMSO. 17 μl of dye was distributed in a 384 well non-binding plate (Greiner).
# (§2) Either SNAP-tagged FUS protein or tag-free PGL-3 protein was thawed at room temperature for at least 10 min, and the buffer was exchanged to partitioning buffer (PB: 50 mM Tris pH 7.25, 500 mM KCl, 5% Glycerol, and 1 mM DTT). The protein was then diluted to 33.3 μM in PB. 3 μl of protein solution were added to the 384 well plate to initiate phase separation, yielding 20 μl of 5 μM protein and 10 μM dye in 75 mM KCl, 0.75% Glycerol, 20 mM Tris, 1 mM DTT, and 1% DMSO or for no dye control reactions, 20 μl of 5 μM protein in 75 mM KCl, 0.75% Glycerol, 20 mM Tris, 1 mM DTT.
# (§3) A spinning disk confocal microscope was used to acquire images of the samples. A 60×oil high-NA objective lens was used to capture the condensate droplets. The laser power was set to 20% and the exposure times were adjusted to the fluorescence emission intensity specific for each dye. Exposure times ranged from 1-1000 ms. Appropriate filter settings were used, matching the excitation and emission spectra of the respective dyes. Three images per well were taken. The background signal of protein droplets in the absence of dye was recorded for all applied imaging conditions.
# (§4) Fluorescence intensity was measured inside one exemplary target condensate (Intensity inside, I-in) per image and in a region next to the exemplary target condensate (Intensity outside, I-out) by hand using the image analysis software Fiji. An example depicting the regions measured is shown FIG. 2A. Three I-in and three I-out values were measured in total for each dye in each experiment and were averaged. The measured I-in and I-out values for FUS-SNAP condensates on one day of experiments are shown in Table 2 and Table 3, respectively. The measured I-in and I-out values for PGL-3 condensates on one day of experiments are shown in Table 4 and Table 5, respectively. All values were background corrected, based on the background images (no dye controls) taken with the same microscope conditions.
# (§5) The ratios of the average intensity measured in the target condensates and outside of the target condensates were calculated by dividing I-in by I-out, although dividing I-out by I-in could also have been used. The I-in:I-out ratios determined from the two different days of experiments were then averaged. The average I-in:I-out ratios for FUS-SNAP condensates are shown in FIG. 3 and the average I-in:I-out ratios for PGL-3 condensates are shown in FIG. 4. The standard deviation between the two experiments is represented by the error bars in FIG. 3 and FIG. 4.
# [2] = molecular target: T2, PGL-3 condensates (Caenorhabditis elegans, UniProt G5EBV6); test: Fluorescence imaging of dye partitioning in PGL-3 condensates (I-in, I-out); settings: for Intensity Inside with Dye Average / Intensity Inside with Dye 1 / Intensity Inside with Dye 2 / Intensity Inside with Dye 3 / Intensity Inside Dye-No Dye: inside PGL-3 condensate; for Intensity Inside with Dye Average / Intensity Inside with Dye 1 / Intensity Inside with Dye 2 / Intensity Inside with Dye 3 / Intensity Outside with Dye Average / Intensity Outside with Dye 1 / Intensity Outside with Dye 2 / Intensity Outside with Dye 3: 5 μM protein; for Intensity Inside with Dye Average / Intensity Outside with Dye Average: average of three images; for Intensity Inside with Dye Average / Intensity Inside with Dye 1 / Intensity Inside with Dye 2 / Intensity Inside with Dye 3 / Intensity Inside Dye-No Dye / Intensity Outside with Dye Average / Intensity Outside with Dye 1 / Intensity Outside with Dye 2 / Intensity Outside with Dye 3 / Intensity Outside (Dye-No Dye): one day of experiments; for Intensity Inside with Dye 1 / Intensity Outside with Dye 1: image 1; for Intensity Inside with Dye 2 / Intensity Outside with Dye 2: image 2; for Intensity Inside with Dye 3 / Intensity Outside with Dye 3: image 3; for Intensity Inside Dye-No Dye / Intensity Outside (Dye-No Dye): background corrected; for Intensity Outside with Dye Average / Intensity Outside with Dye 1 / Intensity Outside with Dye 2 / Intensity Outside with Dye 3 / Intensity Outside (Dye-No Dye): outside PGL-3 condensate
# T2 sequence (G5EBV6 1-693): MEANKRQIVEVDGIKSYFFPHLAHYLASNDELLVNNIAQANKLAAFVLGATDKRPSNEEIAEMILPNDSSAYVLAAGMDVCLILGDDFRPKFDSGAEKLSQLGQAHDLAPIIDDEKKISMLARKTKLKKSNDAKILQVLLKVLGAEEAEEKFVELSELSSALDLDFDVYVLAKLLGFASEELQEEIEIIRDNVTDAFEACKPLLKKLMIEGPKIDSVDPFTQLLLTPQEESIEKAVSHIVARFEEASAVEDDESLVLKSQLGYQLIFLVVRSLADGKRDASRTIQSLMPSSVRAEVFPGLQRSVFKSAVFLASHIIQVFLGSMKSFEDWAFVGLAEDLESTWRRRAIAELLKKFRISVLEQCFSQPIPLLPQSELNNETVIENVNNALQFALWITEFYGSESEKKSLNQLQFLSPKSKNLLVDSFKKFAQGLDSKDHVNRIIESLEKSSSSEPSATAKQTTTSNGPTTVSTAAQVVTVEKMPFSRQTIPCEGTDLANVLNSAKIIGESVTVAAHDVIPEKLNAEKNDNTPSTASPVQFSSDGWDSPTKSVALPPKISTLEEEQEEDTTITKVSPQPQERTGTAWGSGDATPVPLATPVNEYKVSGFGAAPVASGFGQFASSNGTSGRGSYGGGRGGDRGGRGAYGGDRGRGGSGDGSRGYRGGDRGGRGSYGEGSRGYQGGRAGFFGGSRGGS
# Experimental: as §1, §2, §3, §4, §5
# [3] = tested on: FUS-SNAP condensates versus PGL-3 condensates; test: Condensate preference: ratio of FUS-SNAP I-in:I-out to PGL-3 I-in:I-out; settings: average FUS-SNAP I-in:I-out divided by average PGL-3 I-in:I-out
# Experimental: as §5
Compound,Ratio of intensity inside:outside FUS-SNAP Condensates Day 1 [1],Intensity Inside with Dye Average [1],Intensity Inside with Dye 1 [1],Intensity Inside with Dye 2 [1],Intensity Inside with Dye 3 [1],Intensity Inside Dye-No Dye [1],Intensity Outside with Dye Average [1],Intensity Outside with Dye 1 [1],Intensity Outside with Dye 2 [1],Intensity Outside with Dye 3 [1],Intensity Outside (Dye-No Dye) [1],"Ratio of intensity inside:outside PGL-3 Condensates Day 2 ([2]; I-in:I-out, 10 μM dye)",Intensity Inside with Dye Average ([2]; 10 μM dye),Intensity Inside with Dye 1 ([2]; 10 μM dye),Intensity Inside with Dye 2 ([2]; 10 μM dye),Intensity Inside with Dye 3 ([2]; 10 μM dye),Intensity Inside Dye-No Dye [2],Intensity Outside with Dye Average ([2]; 10 μM dye),Intensity Outside with Dye 1 ([2]; 10 μM dye),Intensity Outside with Dye 2 ([2]; 10 μM dye),other results
6-[Fluorescein-5(6)-carboxamido]-hexanoic acid [Dye 8],1.7,5354.9,5285.1,5631.6,5148.0,5219.7,3178.8,3064.0,3267.0,3205.5,3074.8,1.0,3538.6,3527.5,3608.1,3480.3,3392.1,3496.8,3491.4,3551.4,"Ratio of intensity inside:outside FUS-SNAP Condensates Day 2 [1]: 1.6; Ratio of intensity inside:outside FUS-SNAP Condensates Average [1]: 1.6; Ratio of intensity inside:outside PGL-3 Condensates Day 1 ([2]; I-in:I-out, 10 μM dye): 1.0; Ratio of intensity inside:outside PGL-3 Condensates Average ([2]; I-in:I-out, average of two days, 10 μM dye): 1.0; Intensity Outside with Dye 3 ([2]; 10 μM dye): 3447.6; Intensity Outside (Dye-No Dye) [2]: 3391.4; Ratio of FUS-SNAP:PGL-3 [3]: 1.6"
"O=C1OC2(c3ccc(O[C@@H]4O[C@H](CO)[C@H](O)[C@H](O)[C@H]4O)cc3Oc3cc(O[C@@H]4O[C@H](CO)[C@H](O)[C@H](O)[C@H]4O)ccc32)c2ccccc21 [Dye 12, Fluorescein di(β-D-galacto-pyranoside)]",−2.3,478.0,456.2,508.6,469.3,−19.5,148.6,150.1,142.8,152.9,8.5,1.9,690.1,689.4,656.9,723.9,92.8,206.4,208.4,203.2,"Ratio of intensity inside:outside PGL-3 Condensates Day 1 ([2]; I-in:I-out, 10 μM dye): 2.1; Intensity Outside with Dye 3 ([2]; 10 μM dye): 207.7; Intensity Outside (Dye-No Dye) [2]: 43.5"
"CC(=O)Oc1ccc2c(c1)Oc1cc(OC(C)=O)ccc1C21OC(=O)c2ccccc21 [Dye 9, Fluorescein diacetate]",1.9,6034.1,5836.4,6036.1,6229.9,1821.5,1485.0,1487.5,1414.8,1552.6,934.8,−0.4,828.6,824.1,801.2,860.4,231.3,269.2,269.6,264.9,"Ratio of intensity inside:outside FUS-SNAP Condensates Day 2 [1]: 1.5; Ratio of intensity inside:outside FUS-SNAP Condensates Average [1]: 1.7; Ratio of intensity inside:outside PGL-3 Condensates Day 1 ([2]; I-in:I-out, 10 μM dye): 2.2; Intensity Outside with Dye 3 ([2]; 10 μM dye): 273.2; Intensity Outside (Dye-No Dye) [2]: 106.3"
"CC/N=c1/cc2oc3cc(NCC)c(C)cc3c(-c3ccccc3C(=O)NCCOCCOCCN)c-2cc1C.O=C(O)C(F)(F)F [Dye 15, N-(8-Amino-3,6-dioxaoctyl)-rhodamine 6G-amide bis(trifluoroacetate)]",70.8,3480.0,3084.2,3756.7,3599.3,−732.6,539.8,559.0,527.6,532.7,−10.3,3.3,6487.9,6831.9,6829.0,5802.8,1228.1,1263.8,1289.1,1266.2,Intensity Outside with Dye 3 ([2]; 10 μM dye): 1236.3; Intensity Outside (Dye-No Dye) [2]: 555.7
